The source of these data is patent publication US8674100B2, “Inhibitors of C-FMS kinase” (Janssen Pharmaceutica, N.V., priority 2006, dated 2014).

Values joined by “and” are separate entries in the source; they are usually repeats but may differ in a detail not shown here. Equal values may be shown once. Where a name gives a salt, the structure may show the parent alone.

CSF-1R (c-fms), sequence (P07333 20-972): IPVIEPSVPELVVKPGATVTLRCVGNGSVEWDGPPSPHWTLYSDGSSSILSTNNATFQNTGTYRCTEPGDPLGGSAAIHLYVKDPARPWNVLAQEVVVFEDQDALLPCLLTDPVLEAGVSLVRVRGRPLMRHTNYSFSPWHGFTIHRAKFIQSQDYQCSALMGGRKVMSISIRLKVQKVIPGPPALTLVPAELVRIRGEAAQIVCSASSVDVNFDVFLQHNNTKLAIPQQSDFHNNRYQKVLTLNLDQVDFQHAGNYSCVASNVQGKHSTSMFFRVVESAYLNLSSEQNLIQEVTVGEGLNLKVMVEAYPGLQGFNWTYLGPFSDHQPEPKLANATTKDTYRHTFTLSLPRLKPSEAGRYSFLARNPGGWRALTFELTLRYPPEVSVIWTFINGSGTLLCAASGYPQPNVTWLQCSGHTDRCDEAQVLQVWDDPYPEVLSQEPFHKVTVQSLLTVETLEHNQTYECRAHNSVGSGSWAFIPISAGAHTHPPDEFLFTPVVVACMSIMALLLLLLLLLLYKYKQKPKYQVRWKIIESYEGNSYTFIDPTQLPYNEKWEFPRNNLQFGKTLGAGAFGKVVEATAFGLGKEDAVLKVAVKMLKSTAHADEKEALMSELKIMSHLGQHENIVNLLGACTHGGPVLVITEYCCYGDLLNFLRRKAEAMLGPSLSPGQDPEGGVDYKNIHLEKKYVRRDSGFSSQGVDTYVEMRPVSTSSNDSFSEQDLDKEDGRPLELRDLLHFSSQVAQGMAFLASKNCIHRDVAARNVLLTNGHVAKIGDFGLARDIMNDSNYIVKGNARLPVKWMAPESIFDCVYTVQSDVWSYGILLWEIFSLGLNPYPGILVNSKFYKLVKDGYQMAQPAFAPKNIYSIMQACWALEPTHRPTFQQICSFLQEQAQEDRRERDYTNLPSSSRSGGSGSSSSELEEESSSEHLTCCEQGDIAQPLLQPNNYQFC

The test system of the first test is mouse bone-marrow derived macrophages.
Test: not given
The conditions noted are these: Mus musculus, BMDM, 30 h, read-out: mCSF driven proliferation BMDM (Mouse) - IC-50 (μM), BrDU incorporation, CSF-1 stimulated, 30 hrs culture.
As for `CC1(C)CC=C(c2cc(CC(=O)NCCCO)ccc2NC(=O)c2ncc(C#N)[nH]2)CC1` [Example 54, 5-Cyano-1H-imidazole-2-carboxylic acid {2-(4,4-dimethyl-cyclohex-1-enyl)-4-[(3-hydroxy-propylcarbamoyl)-methyl]-phenyl}-amide], the IC50 was more than 0.1 µM.

As to `CC1(C)CC=C(c2cc(C(C)(C)N3CCN(CC(=O)O)CC3)ccc2NC(=O)c2nc(C#N)c[nH]2)CC1` [Example 64, (4-{1-[4-[(4-Cyano-1H-imidazole-2-carbonyl)-amino]-3-(4,4-dimethyl-cyclohex-1-enyl)-phenyl]-1-methyl-ethyl}-piperazin-1-yl)-acetic acid, sodium salt], the IC50 stood at 0.2 µM.

For `O=C(Nc1ccc(CCN2CCOCC2)cc1C1=CCCCC1)c1ncc(Cl)[nH]1` [Example 41, 5-Chloro-1H-imidazole-2-carboxylic acid [2-cyclohex-1-enyl-4-(2-morpholin-4-yl-ethyl)-phenyl]-amide hydrochloride], the IC50 worked out at 0.321 µM.

`CC1(C)CC=C(c2cc(C(C)(C)CN3C[C@@H]4OC(C)(C)O[C@@H]4C3)ccc2NC(=O)c2nc(C#N)c[nH]2)CC1` [Example 140, 4-Cyano-1H-imidazole-2-carboxylic acid {2-(4,4-dimethyl-cyclohex-1-enyl)-4-[2-(2,2-dimethyl-tetrahydro-[1,3]dioxolo[4,5-c]pyrrol-5-yl)-1,1-dimethyl-ethyl]-phenyl}-amide]: the IC50 was 0.031 µM.

On to `N#Cc1cnc(C(=O)Nc2ccc(CN3CCOCC3)cc2C2=CCCCC2)[nH]1` [Example 44, 5-Cyano-1H-imidazole-2-carboxylic acid (2-cyclohex-1-enyl-4-morpholin-4-ylmethyl-phenyl)-amide hydrochloride], for which the IC50 worked out at 0.0164 µM.

`CC1(C)CC=C(c2cc(C(C)(C)NCCO)ccc2NC(=O)c2nc(C#N)c[nH]2)CC1` [Example 65, 4-Cyano-1H-imidazole-2-carboxylic acid {2-(4,4-dimethyl-cyclohex-1-enyl)-4-[1-(2-hydroxy-ethylamino)-1-methyl-ethyl]-phenyl}-amide hydrochloride]: the IC50 was found to be 0.0081 µM.

The same test, now with this note: read-out: mCSF driven proliferation BMDM (Mouse) - IC-50; BrDU incorporation, CSF-1 stimulated, 30 hrs culture.
As to `COCCNC(C)(C)c1ccc(NC(=O)c2nc(C#N)c[nH]2)c(C2=CCC(C)(C)CC2)c1` [Example 20, 4-Cyano-1H-imidazole-2-carboxy-lic acid{2-(4,4-di-methyl-cyclo-hex-1-enyl)-4-[1-(2-meth-oxy-ethyl-amino)-1-methyl-ethyl]-phenyl}-amide], the IC50 is 0.0047 µM and 0.0048 µM.

As for `CN1CCN(C(C)(C)c2ccc(NC(=O)c3nc(C#N)c[nH]3)c(C3=CCC(C)(C)CC3)c2)CC1` [Example 23, 4-Cyano-1H-imidazole-2-carboxy-lic acid{2-(4,4-di-methyl-cyclohex-1-enyl)-4-[1-meth-yl-1-(4-methyl-piperazin-1-yl)-ethyl]-phe-nyl}-amide], the IC50 came out at 0.0033 µM.

Take `N#Cc1c[nH]c(C(=O)Nc2ccc(CCS(=O)(=O)N3CCOCC3)cc2C2=CCCCC2)n1` [Example 26, 4-Cyano-1H-imidazole-2-carboxylic acid {2-cyclohex-1-enyl-4-[2-(morpholine-4-sulfonyl)-ethyl]-phenyl}-amide]: the IC50 came out at 0.0059 µM.

Staying with this test, now noted: read-out: mCSF driven proliferation BMDM (Mouse) - IC-50; BrDU incorporation, CSF-1 stimulated, 30 hrs culture; hydrochloride.
On to `N#Cc1cnc(C(=O)Nc2ccc(CN3CCOCC3)cc2C2=CCCCC2)[nH]1` [Example 44, 5-Cyano-1H-imidazole-2-carboxylic acid (2-cyclohex-1-enyl-4-morpholin-4-ylmethyl-phenyl)-amide hydrochloride], for which the IC50 worked out at 0.0146 µM.

Another test addresses CSF-1R (c-fms) (Homo sapiens (Human), UniProt P07333). In words: Fluorescence polarization competition immunoassay (1 nM c-fms; peptide Pi assay). It counts as biochemical. The conditions noted are these: read-out: 1 nM c-fms; peptide Pi assay - IC-50.
Procedure: Fluorescence Polarization Competition Immunoassay
The kinase reaction was initiated by adding 1 μL of 10 mM ATP in assay buffer. […] Positive and negative control wells were included on each plate, where 4% DMSO in assay buffer was substituted for the compound; in addition, positive control wells received 1.2 μL of 50 mM EDTA (ethylenediaminetetraacetic acid) before the start of the reaction.
The plates were covered, incubated for 30 min at room temperature, and the fluorescence polarization was read on an Analyst plate reader (Molecular Devices). […] Reported IC50 values are the mean of three of at least three determinations.
On to `Cc1nc(C(=O)Nc2ccc(CCN3CCOCC3)cc2C2=CCCCC2)[nH]c1C#N` [Example 33, 5-Cyano-4-methyl-1H-imidazole-2-carboxylic acid [2-cyclohex-1-enyl-4-(2-morpholin-4-yl-ethyl)-phenyl]-amide hydrochloride], for which the IC50 is more than 60 nM.

Turning to `CC1(C)CC=C(c2cc(C(C)(C)CN3C[C@@H]4OC(C)(C)O[C@@H]4C3)ccc2NC(=O)c2nc(C#N)c[nH]2)CC1` [Example 140, 4-Cyano-1H-imidazole-2-carboxylic acid {2-(4,4-dimethyl-cyclohex-1-enyl)-4-[2-(2,2-dimethyl-tetrahydro-[1,3]dioxolo[4,5-c]pyrrol-5-yl)-1,1-dimethyl-ethyl]-phenyl}-amide], the IC50 was more than 100 nM.

As to `C[S+]([O-])c1ncc(C(=O)Nc2ccc(CCN3CCOCC3)cc2C2=CCCCC2)[nH]1` (centres unmarked) [Example 35, 2-Methanesulfinyl-3H-imidazole-4-carboxylic acid [2-cyclohex-1-enyl-4-(2-morpholin-4-yl-ethyl)-phenyl]-amide trifluoroacetic acid salt], the IC50 is more than 500 nM.

`O=C(Nc1ccc(CCN2CCOCC2)cc1C1=CCCCC1)c1nc(Cl)c(Cl)[nH]1` [Example 38, 4,5-Dichloro-1H-imidazole-2-carboxylic acid [2-cyclohex-1-enyl-4-(2-morpholin-4-yl-ethyl)-phenyl]-amide trifluoroacetic acid salt]: the IC50 was more than 60 nM.

As for `O=C(Nc1ccc(CCN2CCOCC2)cc1C1=CCCCC1)c1nc2ccccc2[nH]1` [Example 39, 1H-Benzoimidazole-2-carboxylic acid [2-cyclohex-1-enyl-4-(2-morpholin-4-yl-ethyl)-phenyl]-amide trifluoroacetic acid salt], the IC50 was more than 60 nM.

As to `CS(=O)(=O)c1ncc(C(=O)Nc2ccc(CCN3CCOCC3)cc2C2=CCCCC2)[nH]1` [Example 36, 2-Methanesulfonyl-3H-imidazole-4-carboxylic acid [2-cyclohex-1-enyl-4-(2-morpholin-4-yl-ethyl)-phenyl]-amide hydrochloride], the IC50 is more than 500 nM.

For another test, the target named is c-fms (Homo sapiens (Human), UniProt P07333). The experiment in a line: 10 nM c-fms auto-Pi assay. It counts as biochemical. The conditions noted are these: cell printed as 0.05@0.002–2; read-out: 10 nM c-fms auto-Pi assay - IC-50.
c-fms, sequence (P07333 20-972): as above
Take `CCN(C)CCCc1ccc(NC(=O)c2ccc(C#N)o2)c(N2CCC(C)CC2)c1` [Example 55, 5-Cyano-furan-2-carboxylic acid [4-[3-(ethyl-methyl-amino)-propyl]-2-(4-methyl-piperidin-1-yl)-phenyl]-amide]: the IC50 is 50 nM.
